How the values were obtained:
[1] = molecular target: T1, C-X-C chemokine receptor type 1 (Homo sapiens, UniProt P25024); further: in other assays of this panel Not Active means under 50% inhibition at 10 µM
T1 sequence (P25024 whole entry): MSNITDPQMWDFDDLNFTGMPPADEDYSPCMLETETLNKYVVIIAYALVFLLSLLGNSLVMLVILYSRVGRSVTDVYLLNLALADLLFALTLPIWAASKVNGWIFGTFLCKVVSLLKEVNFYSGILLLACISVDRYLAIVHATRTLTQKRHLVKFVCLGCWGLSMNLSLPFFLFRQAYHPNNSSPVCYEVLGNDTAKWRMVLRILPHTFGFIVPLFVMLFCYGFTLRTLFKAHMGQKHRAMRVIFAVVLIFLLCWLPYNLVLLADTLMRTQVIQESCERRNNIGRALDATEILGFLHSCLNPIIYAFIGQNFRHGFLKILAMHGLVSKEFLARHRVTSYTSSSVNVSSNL

[2] = molecular target: T2, 5-hydroxytryptamine receptor 2C (Homo sapiens, UniProt P28335); test: DRUGMATRIX: Serotonin (5-Hydroxytryptamine) 5-HT2C radioligand binding (ligand: [3H] Mesulergine); type: cell membranes, CHO-K1, Membrane; details: Not Active = under 50% inhibition at 10 µM
T2 sequence (P28335 whole entry): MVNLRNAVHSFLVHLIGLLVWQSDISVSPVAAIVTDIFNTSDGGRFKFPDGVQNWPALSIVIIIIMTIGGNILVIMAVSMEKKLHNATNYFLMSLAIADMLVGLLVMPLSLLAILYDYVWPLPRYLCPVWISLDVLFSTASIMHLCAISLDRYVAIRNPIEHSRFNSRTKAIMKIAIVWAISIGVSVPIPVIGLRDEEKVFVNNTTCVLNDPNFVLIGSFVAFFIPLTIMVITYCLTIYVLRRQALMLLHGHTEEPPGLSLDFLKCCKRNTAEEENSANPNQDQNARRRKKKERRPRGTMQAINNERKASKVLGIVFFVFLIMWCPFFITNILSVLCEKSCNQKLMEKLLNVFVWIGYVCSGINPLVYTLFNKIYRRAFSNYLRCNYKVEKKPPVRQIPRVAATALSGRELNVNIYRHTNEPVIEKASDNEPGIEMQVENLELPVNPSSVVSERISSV

Estrogen receptor beta = Estrogen receptor beta (Homo sapiens, UniProt Q92731); details: sf9; further: in other assays of this panel Not Active means under 50% inhibition at 10 µM
Chain of Estrogen receptor beta (Q92731 whole entry): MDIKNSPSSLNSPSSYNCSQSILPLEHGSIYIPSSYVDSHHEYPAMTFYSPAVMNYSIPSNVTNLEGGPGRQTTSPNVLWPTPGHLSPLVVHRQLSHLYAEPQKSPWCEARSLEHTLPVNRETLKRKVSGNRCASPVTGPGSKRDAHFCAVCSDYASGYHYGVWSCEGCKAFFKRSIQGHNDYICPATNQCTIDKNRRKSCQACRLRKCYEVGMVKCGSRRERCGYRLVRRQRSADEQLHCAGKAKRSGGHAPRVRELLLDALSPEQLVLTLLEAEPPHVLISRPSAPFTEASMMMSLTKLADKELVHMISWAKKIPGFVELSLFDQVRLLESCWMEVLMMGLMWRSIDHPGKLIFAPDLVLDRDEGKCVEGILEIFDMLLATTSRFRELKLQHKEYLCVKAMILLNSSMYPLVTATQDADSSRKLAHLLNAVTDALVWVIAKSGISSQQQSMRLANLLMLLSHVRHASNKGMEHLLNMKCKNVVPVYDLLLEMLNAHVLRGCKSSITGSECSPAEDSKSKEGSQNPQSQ

[3] = molecular target: T3, C-C chemokine receptor type 4 (Homo sapiens, UniProt P51679); type: cell membranes, Chem-1, Membrane; details: chem-1; further: in other assays of this panel Not Active means under 50% inhibition at 10 µM
T3 sequence (P51679 whole entry): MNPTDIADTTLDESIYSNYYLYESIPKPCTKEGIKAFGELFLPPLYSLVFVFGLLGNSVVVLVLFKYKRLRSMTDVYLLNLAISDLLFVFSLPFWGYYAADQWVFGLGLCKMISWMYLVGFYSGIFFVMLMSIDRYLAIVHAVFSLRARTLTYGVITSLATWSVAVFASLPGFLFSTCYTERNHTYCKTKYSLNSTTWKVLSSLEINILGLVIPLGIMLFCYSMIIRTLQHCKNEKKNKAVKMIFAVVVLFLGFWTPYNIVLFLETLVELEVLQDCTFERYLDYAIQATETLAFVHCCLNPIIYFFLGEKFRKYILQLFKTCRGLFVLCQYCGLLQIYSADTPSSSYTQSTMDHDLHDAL

Interstitial collagenase = molecular target: T4, Interstitial collagenase (Homo sapiens, UniProt P03956); test: biochemical; type: tissue-based, Rheumatoid synovial fibroblasts;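 further: MMP-1 enzyme inhibition assay using a peptide substrate; in other assays of this panel Not Active means under 50% inhibition at 10 µM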
T4 sequence (P03956 whole entry): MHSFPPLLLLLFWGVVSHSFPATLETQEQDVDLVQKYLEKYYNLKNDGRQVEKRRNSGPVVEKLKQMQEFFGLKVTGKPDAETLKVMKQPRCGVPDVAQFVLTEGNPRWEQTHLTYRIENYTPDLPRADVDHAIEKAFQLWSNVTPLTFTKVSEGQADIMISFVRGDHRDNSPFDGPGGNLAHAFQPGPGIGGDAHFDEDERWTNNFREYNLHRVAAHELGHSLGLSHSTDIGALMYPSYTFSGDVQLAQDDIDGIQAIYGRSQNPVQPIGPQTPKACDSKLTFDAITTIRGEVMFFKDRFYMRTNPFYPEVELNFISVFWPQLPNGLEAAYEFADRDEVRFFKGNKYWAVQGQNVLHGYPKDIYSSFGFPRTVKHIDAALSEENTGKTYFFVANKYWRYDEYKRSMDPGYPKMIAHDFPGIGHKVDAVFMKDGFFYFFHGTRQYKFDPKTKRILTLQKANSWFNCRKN

[4] = DRUGMATRIX: Calcium Channel Type L, Phenylalkylamine radioligand binding (ligand: [3H] (-)-Desmethoxyverapamil (D-888)); type: cell membranes, Rattus norvegicus, Wistar, Brain, Membrane; details: Not Active = under 50% inhibition at 10 µM
Leukotriene C4 synthase = molecular target: T5, Leukotriene C4 synthase (Cavia porcellus, UniProt A6XA80); test: biochemical; type: tissue-based, Lung
T5 sequence (A6XA80 whole entry): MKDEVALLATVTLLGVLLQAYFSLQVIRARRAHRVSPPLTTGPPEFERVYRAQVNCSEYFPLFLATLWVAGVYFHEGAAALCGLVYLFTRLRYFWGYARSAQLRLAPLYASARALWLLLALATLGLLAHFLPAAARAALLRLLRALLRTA

B2 bradykinin receptor = molecular target: T6, B2 bradykinin receptor (Homo sapiens, UniProt P30411); type: cell membranes, Membrane; details: chem-1; further: in other assays of this panel Not Active means under 50% inhibition at 10 µM
T6 sequence (P30411 whole entry): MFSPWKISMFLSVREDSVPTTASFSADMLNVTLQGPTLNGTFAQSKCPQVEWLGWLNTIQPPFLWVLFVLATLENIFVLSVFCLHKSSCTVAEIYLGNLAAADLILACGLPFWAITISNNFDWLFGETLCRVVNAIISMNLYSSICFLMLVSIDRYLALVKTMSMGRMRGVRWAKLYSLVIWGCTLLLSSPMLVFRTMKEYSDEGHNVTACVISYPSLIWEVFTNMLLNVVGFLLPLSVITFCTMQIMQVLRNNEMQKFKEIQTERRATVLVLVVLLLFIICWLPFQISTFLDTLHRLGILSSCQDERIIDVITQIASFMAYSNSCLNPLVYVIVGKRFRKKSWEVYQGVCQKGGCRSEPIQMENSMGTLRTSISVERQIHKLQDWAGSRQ

CC[C@H]1OC(=O)[C@H](C)[C@@H](O[C@H]2C[C@@](C)(OC)[C@@H](O)[C@H](C)O2)[C@H](C)[C@@H](O[C@@H]2O[C@H](C)C[C@H](N(C)C)[C@H]2O)[C@](C)(O)C[C@@H](C)C(=O)[C@H](C)[C@@H](O)[C@]1(C)O [ERYTHROMYCIN]
Not Active: IC50 [1] | IC50 ([2]; cho-k1) | IC50 (Estrogen receptor beta) | IC50 [3] | IC50 (Interstitial collagenase) | IC50 [4] | Ki [4] | IC50 (Leukotriene C4 synthase) | IC50 (B2 bradykinin receptor)

O=C(O)CNCP(=O)(O)O [GLYPHOSATE]
Not Active: IC50 [1] | IC50 ([2]; cho-k1) | IC50 (Estrogen receptor beta) | IC50 [3] | IC50 (Interstitial collagenase) | IC50 [4] | Ki [4] | IC50 (Leukotriene C4 synthase) | IC50 (B2 bradykinin receptor)

Nc1nc(N)c2nc(CNc3ccc(C(=O)N[C@@H](CCC(=O)O)C(=O)O)cc3)cnc2n1 [AMINOPTERIN]
Not Active: IC50 [1] | IC50 ([2]; cho-k1) | IC50 (Estrogen receptor beta) | IC50 [3] | IC50 (Interstitial collagenase) | IC50 [4] | Ki [4] | IC50 (Leukotriene C4 synthase) | IC50 (B2 bradykinin receptor)

CC(C)Cn1cnc2c(N)nc3ccccc3c21 [IMIQUIMOD]
Not Active: IC50 [1] | IC50 ([2]; cho-k1) | IC50 (Estrogen receptor beta) | IC50 [3] | IC50 (Interstitial collagenase) | IC50 [4] | Ki [4] | IC50 (Leukotriene C4 synthase) | IC50 (B2 bradykinin receptor)

C[N+](C)(C)CCOP(=O)([O-])OC[C@H](O)CO
Not Active: IC50 [1] | IC50 ([2]; cho-k1) | IC50 (Estrogen receptor beta) | IC50 [3] | IC50 (Interstitial collagenase) | IC50 [4] | Ki [4] | IC50 (Leukotriene C4 synthase) | IC50 (B2 bradykinin receptor)

CARBOXYMETHYLCELLULOSE
Not Active: IC50 [1] | Ki [1] | IC50 ([2]; cho-k1) | Ki ([2]; cho-k1) | IC50 (Estrogen receptor beta) | Ki (Estrogen receptor beta) | IC50 [3] | Ki [3] | IC50 (Interstitial collagenase) | Ki (Interstitial collagenase) | IC50 [4] | Ki [4] | IC50 (Leukotriene C4 synthase) | Ki (Leukotriene C4 synthase) | IC50 (B2 bradykinin receptor) | Ki (B2 bradykinin receptor)

O=C(O)COC(=O)Cc1ccccc1Nc1c(Cl)cccc1Cl [ACECLOFENAC]
Not Active: IC50 [1] | IC50 ([2]; cho-k1) | IC50 (Estrogen receptor beta) | IC50 [3] | IC50 (Interstitial collagenase) | IC50 [4] | Ki [4] | IC50 (Leukotriene C4 synthase) | IC50 (B2 bradykinin receptor)

COc1ccc(C[C@H](N)C(=O)N[C@H]2[C@@H](O)[C@H](n3cnc4c(N(C)C)ncnc43)O[C@@H]2CO)cc1 [PUROMYCIN]
Not Active: IC50 [1] | IC50 ([2]; cho-k1) | IC50 (Estrogen receptor beta) | IC50 [3] | IC50 (Interstitial collagenase) | IC50 [4] | Ki [4] | IC50 (Leukotriene C4 synthase) | IC50 (B2 bradykinin receptor)

C[C@H](C(=O)O)c1ccc2oc(-c3ccc(F)cc3)nc2c1 [FLUNOXAPROFEN]
Not Active: IC50 [1] | IC50 ([2]; cho-k1) | IC50 (Estrogen receptor beta) | IC50 [3] | IC50 (Interstitial collagenase) | IC50 [4] | Ki [4] | IC50 (Leukotriene C4 synthase) | IC50 (B2 bradykinin receptor)

C[C@@H]1[C@H](O)[C@@H](C)/C=C/C=C/C=C/C=C/C=C/C=C/C=C/[C@H](O[C@@H]2O[C@H](C)[C@@H](O)[C@H](N)[C@@H]2O)C[C@@H]2O[C@](O)(C[C@@H](O)C[C@@H](O)[C@H](O)CC[C@@H](O)C[C@@H](O)CC(=O)O[C@H]1C)C[C@H](O)[C@H]2C(=O)O [AMPHOTERICIN B]
Not Active: IC50 [1] | IC50 ([2]; cho-k1) | IC50 (Estrogen receptor beta) | IC50 [3] | IC50 (Interstitial collagenase) | IC50 [4] | Ki [4] | IC50 (Leukotriene C4 synthase) | IC50 (B2 bradykinin receptor)

COc1cc(NC(C)CCCN)c2ncccc2c1 (stereo unspecified) [PRIMAQUINE]
Not Active: IC50 [1] | IC50 ([2]; cho-k1) | IC50 (Estrogen receptor beta) | IC50 [3] | IC50 (Interstitial collagenase) | IC50 [4] | Ki [4] | IC50 (Leukotriene C4 synthase) | IC50 (B2 bradykinin receptor)

COc1cc(/C=C/C(=O)O)ccc1O [FERULATE]
Not Active: IC50 [1] | IC50 ([2]; cho-k1) | IC50 (Estrogen receptor beta) | IC50 [3] | IC50 (Interstitial collagenase) | IC50 [4] | Ki [4] | IC50 (Leukotriene C4 synthase) | IC50 (B2 bradykinin receptor)

CCN1CCN(C(=O)N[C@@H](C(=O)N[C@@H]2C(=O)N3[C@@H]2SC(C)(C)[C@@H]3C(=O)O)c2ccccc2)C(=O)C1=O [PIPERACILLIN]
Not Active: IC50 [1] | IC50 ([2]; cho-k1) | IC50 (Estrogen receptor beta) | IC50 [3] | IC50 (Interstitial collagenase) | IC50 [4] | Ki [4] | IC50 (Leukotriene C4 synthase) | IC50 (B2 bradykinin receptor)

C=CCN1CC[C@]23c4c5ccc(O)c4O[C@H]2/C(=N/N=C2\CC[C@@]4(O)[C@H]6Cc7ccc(O)c8c7[C@@]4(CCN6CC=C)[C@H]2O8)CC[C@@]3(O)[C@H]1C5 [NALOXONAZINE]
Not Active: IC50 [1] | IC50 ([2]; cho-k1) | IC50 (Estrogen receptor beta) | IC50 [3] | IC50 (Interstitial collagenase) | IC50 [4] | Ki [4] | IC50 (Leukotriene C4 synthase) | IC50 (B2 bradykinin receptor)

c1ccc2c(c1)Nc1ccccc1S2 [PHENOTHIAZINE]
2.24 µM: IC50 ([2]; read-out: IC50)
Not Active: IC50 [1] | IC50 (Estrogen receptor beta) | IC50 [3] | IC50 (Interstitial collagenase) | IC50 [4] | Ki [4] | IC50 (Leukotriene C4 synthase) | IC50 (B2 bradykinin receptor)
1.17 µM: Ki ([2]; read-out: Ki)

Cl.NC[C@H]1CC[C@H](C(=O)Oc2ccc(CCC(=O)O)cc2)CC1 [CETRAXATE HYDROCHLORIDE]
Not Active: IC50 [1] | IC50 ([2]; cho-k1) | IC50 (Estrogen receptor beta) | IC50 [3] | IC50 (Interstitial collagenase) | IC50 [4] | Ki [4] | IC50 (Leukotriene C4 synthase) | IC50 (B2 bradykinin receptor)

CN(CCOc1ccc(C[C@H](Nc2ccccc2C(=O)c2ccccc2)C(=O)O)cc1)c1ccccn1
Not Active: IC50 [1] | IC50 ([2]; cho-k1) | IC50 (Estrogen receptor beta) | IC50 [3] | IC50 (Interstitial collagenase) | IC50 [4] | Ki [4] | IC50 (Leukotriene C4 synthase) | IC50 (B2 bradykinin receptor)
